# Columns and labels:
# [1] = test system: inflammatory bowel disease-induced mouse model (DSS); assay: Histopathological symptom analysis (colon length, histological state and score) in 2% DSS mouse model; format: in vivo
# Experimental: After the experiment was completed, the mice were euthanized with CO2 and the bowels were excised. Next, the bowels were put in cold 1×DPBS and the remaining mesenteric adipose tissue was isolated. At this time, the colon length was measured. Next, the tail end of the colon was opened and wound up with scissors to obtain colon tissue. The obtained colon tissue was fixed in 10% neutral buffered formalin (Sigma-Aldrich, HT501128-4L, St. Louis, Mo., USA) at room temperature for 48 hours and then treated in a tissue processor (Excelsior ES, Thermo scientific, Waltham, Mass., USA) for 12 hours. The processed tissue was sectioned and paraffinized using a microtome (Microm, HM 340E, Thermo Scientific, Waltham, Mass., USA) and an embedding system (HistoStar, Thermo Scientific, Waltham, Mass., USA). Next, the processed tissue was stained with hematoxylin and eosin, and visualized under an optical microscope (Motic, BA310, Redding, Calif., USA) to confirm the histopathological state, and the histopathological state was scored to histological score according to the criteria in the following [Table 2].
# (§1) Specifically, female C57BL/6 mice were fed with a 2% DSS solution or DPBS together with drinking water for 7 days from Day 0 of the experiment by the same method as that described in <Example 1>, DPBS or 5 mg/kg TDCA was administered to the mice by oral gavage one time a day for 6 days from Day 1 of the experiment, and the body weight and DAI were measured daily. As a control, mice freely fed with drinking water were used. Next, the mice were sacrificed on Days 5 and 7 of the experiment by the same method as that described in <Example 2>, and histopathological symptom analysis was performed.
# as §1, with “or 10, 5, 2.5, or 1” for “or 5”, “1” for “1 of”, “used.” for “used. Next, the mice were sacrificed on Days 5 and 7 of the experiment by the same method as that described in <Example 2>, and histopathological symptom analysis was performed.”
# Next, the mice were sacrificed on Day 8 of the experiment by the same method as that described in <Example 2>, and histopathological symptom analysis was performed.
# The mice were sacrificed on Day 8 of the experiment by the same method as that described in <Example 2>, and the colon length was measured.
# [2] = test system: lamina propria mononuclear cells (LPMC) in the colon tissue; assay: Inflammatory cell analysis (FACS of LPMC from colon tissue) in 2% DSS mouse model; format: in vivo; conditions: Day 7; for numbers of CD11b+, Ly6g+, Ly6c+, CD3+, CD4+, CD8+, CD19+, and MHCII+CD11c+ LPMCs in the colon tissue: FIG. 7A
# Experimental: A colon tissue was obtained from a mouse which had been subjected to an experiment by the same method as that described in <Example 2> and put into 30 ml of EDTA and dissociated by being stirred at 37° C. for 30 minutes in order to remove mucus. Next, the tissue was drained with a strainer (70 μm) and washed with warm DPBS. The washing process was repeated a total of 4 to 5 times. An enzyme mixture was prepared by adding 2.35 ml of RPMI 1640 or DMEM, 100 μl of enzyme D, 50 μl of enzyme R, and 12.5 μl of enzyme A to a gentleMACS C tube (Miltenyi Biotec, 130-096-334, Bergisch Gladbach, Germany). The tissue was transferred to the gentleMACS C tube containing the enzyme mixture and dissociated using the gentleMACS Dissociator (Miltenyi Biotec, 130-093-235, Bergisch Gladbach, Germany). Next, the reaction was conducted at 37° C. for 40 minutes in a thermal incubator (Thermo scientific, BB-15, Waltham, Mass., USA) under continuous rotation using a MACSmix Tube Rotator. The digested cells were resuspended in 4 ml of 40% Percoll solution. […]
# In order to confirm changes in the number of inflammatory cells, FACS analysis was performed. […] Next, the cells were washed two times with DPBS, resuspended in 200 μl DAPI, then analyzed using a flow cytometer (LSR Fortessa cytometer, Mississauga, Canada), and graphed.
# (§2) Specifically, female C57BL/6 mice were fed with a 2% DSS solution together with drinking water for 7 days from Day 0 of the experiment by the same method as that described in <Example 1>, DPBS or 5 mg/kg TDCA was administered to the mice by oral gavage one time a day for 6 days from Day 1 of the experiment, and the body weight and DAI were measured daily. […]
# as §2, with “gavage” for “gavage one time a day for 6 days”, “DSS administration or 2 days before DSS administration,” for “the experiment,”
# [3] = 2% DSS 7 days, 5 mg/kg TDCA oral gavage, FIG. 2B
# [4] = 2% DSS 7 days, 10, 5, 2.5, or 1 mg/kg TDCA, Day 8, FIG. 5B
compound,measurement,setting,value
"C[C@H](CCC(=O)NCCS(=O)(=O)O)[C@H]1CC[C@H]2[C@@H]3CC[C@@H]4C[C@H](O)CC[C@]4(C)[C@H]3C[C@H](O)[C@]12C [TDCA, sodium taurodeoxycholic acid]",colon length change,"[1]; 2% DSS 7 days, 5 mg/kg TDCA oral gavage one time a day for 6 days, FIG. 2A",the decrease in colon length was slight
same,average histological score,"[1]; 2% DSS 7 days, 5 mg/kg TDCA oral gavage, DSS+DPBS group about 7, FIG. 2C",about 4
same,epithelial cell defects (histological state),[1]; [3],not observed
same,infiltration of inflammatory cells into the mucous membrane,[1]; [3],slight
same,ulcer,"[1]; 2% DSS 7 days, 5 mg/kg TDCA oral gavage, FIG. 2C",the ulcer was alleviated
same,colon length change,"[1]; 2% DSS 7 days, 10, 5, 2.5, or 1 mg/kg TDCA, Day 8, FIG. 5A",the decrease in colon length was slight
same,epithelial cell defects (histological state),[1]; [4],not observed
same,infiltration of inflammatory cells into the mucous membrane,[1]; [4],alleviated
same,colon length change,"[1]; 2% DSS 7 days, TDCA at 5 and 10 mg/kg, Day 8, FIG. 5A",the decrease in colon length was slighter
same,average histological score,"[1]; 2% DSS 7 days, TDCA at 5 and 10 mg/kg, Day 8, FIG. 5C",about 4
same,ulcer alleviating effect,"[1]; 2% DSS 7 days, TDCA at 5 and 10 mg/kg, Day 8, FIGS. 5B and 5C",superior
same,colon length change,"[1]; DSS+TDCA group: 5 mg/kg TDCA from Day 1 of DSS, Day 8, FIG. 6C",the decrease in colon length was suppressed
same,colon length change,"[1]; DSS+preTDCA group: 5 mg/kg TDCA from 2 days before DSS, Day 8, FIG. 6C",the decrease in colon length was suppressed
same,"numbers of CD11b+, Ly6g+, and Ly6c+ LPMCs in the colon tissue","[2]; 2% DSS 7 days, 5 mg/kg TDCA oral gavage, vs DSS+DPBS group, FIG. 3A",decreased
same,"numbers of CD11b+, Ly6g+, Ly6c+, CD3+, CD4+, CD8+, CD19+, and MHCII+CD11c+ LPMCs in the colon tissue",[2]; DSS+TDCA group: 5 mg/kg TDCA from Day 1 of DSS,decreased
same,"numbers of CD11b+, Ly6g+, Ly6c+, CD3+, CD4+, CD8+, CD19+, and MHCII+CD11c+ LPMCs in the colon tissue",[2]; DSS+preTDCA group: 5 mg/kg TDCA from 2 days before DSS,decreased

# Source: patent US20210386761A1, “COMPOSITION FOR PREVENTING OR TREATING INFLAMMATORY BOWEL DISEASE, CONTAINING, AS ACTIVE INGREDIENT, TAURODEOXYCHOLIC ACID OR PHARMACEUTICALLY ACCEPTABLE SALT THEREOF” (SHAPERON INC., priority 2019, published 2021)
